Reference: paper PMC9865163, “Structural Basis of the Inhibition of L-Methionine γ-Lyase from Fusobacterium nucleatum” (International Journal of Molecular Sciences, 2023)
Where a name gives a salt, the structure may show the parent alone. Read-outs that look alike come from different tables or passages of the source. Where a SMILES comes first, the peptide text is derived from it. The star is where a group is joined. PhAc = O=C(Cc1ccccc1)*

Experiments:
[1] = molecular target: T1, Fn1419 (Fusobacterium nucleatum subsp. nucleatum, UniProt Q8RDT4); type: biochemical
T1 construct: Fn1419 (GeneBank: AAL95612.1, residues 1–395); His-tag (N); made in house; host or cells: E. coli BL21 (DE3)
T1 sequence (Q8RDT4 whole entry, the tested form may be a part): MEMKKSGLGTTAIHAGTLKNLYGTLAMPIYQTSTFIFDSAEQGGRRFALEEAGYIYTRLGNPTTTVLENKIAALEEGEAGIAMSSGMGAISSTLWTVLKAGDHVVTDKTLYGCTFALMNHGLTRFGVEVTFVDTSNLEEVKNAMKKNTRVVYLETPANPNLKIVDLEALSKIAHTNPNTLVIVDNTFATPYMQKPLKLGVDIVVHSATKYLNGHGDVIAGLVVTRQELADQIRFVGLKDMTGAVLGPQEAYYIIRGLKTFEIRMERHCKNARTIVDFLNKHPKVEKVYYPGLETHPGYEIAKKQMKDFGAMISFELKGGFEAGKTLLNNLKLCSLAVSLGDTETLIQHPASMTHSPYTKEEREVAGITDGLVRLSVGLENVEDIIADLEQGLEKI
Description: MGL^Cys activity of Fn1419 was measured as previously reported. Fn1419 (5.75 nM) in assay buffer (40 mM potassium phosphate, pH 7.6, and 10 μM PLP) was mixed with various concentrations of L-cysteine (25, 50, 100, 200, 400, 800, or 1000 μM) and incubated for 15 min at 37 °C. H2S, the reaction product, was then detected based on methylene blue formation. Specifically, 100 μL of solution A (the enzyme reaction solution), 20 μL of solution B (20 mM N′,N′-dimethyl-p-phenylenediamine dihydrochloride and 7.2 M HCl), and 20 μL of solution C (30 mM FeCl3 and 1.2 M HCl) were mixed, and the mixture incubated for 30 min at room temperature.
(§1) Then, 500 μM L-cysteine was added, and the reaction was allowed to proceed for 5 min at 37 °C. The amount of produced H2S was detected indirectly, based on the formation of methylene blue. The reaction mixture consisted of solution A (100 μL), solution B (20 μL), and solution C (20 μL) (the solution composition is described at the enzyme assays) and was incubated for 30 min at 20 °C. The amount of generated methylene blue was detected at 670 nm, using a SpectraMax 190 Microplate Reader (Molecular Devices, San Jose, CA, USA) at 25 °C.

[2] = molecular target: T1, Fn1419; experiment: IC50 determination on MGL^Cys activity of Fn1419; type: biochemical
Description: as §1
The concentration of the enzyme was 5.75 nM and the concentration of the six above-mentioned compounds was 500 μM. IC50 values were eventually calculated from non-linear regression curves fitted.

[3] = test system: Mannheimia haemolytica; details: Mannheimia haemolytica strains; cited from earlier work
[4] = test system: Pasteurella multocida; details: Pasteurella multocida strains; cited from earlier work
[5] = test system: E. coli; details: E. coli strains; cited from earlier work
[6] = test system: antibiotic-resistant S. aureus; details: antibiotic-resistant S. aureus strains; cited from earlier work
[7] = test system: Fn1055; experiment: Inhibitory effect of gallic acid on H2S production of Fn1055; type: biochemical, Fusobacterium nucleatum; details: 500 μM gallic acid, 5.75 nM enzyme
Description: as §1

[8] = test system: Fn1220; experiment: Inhibitory effect of gallic acid on H2S production of Fn1220; type: biochemical, Fusobacterium nucleatum; details: 500 μM gallic acid, 5.75 nM enzyme
Description: as §1

[9] = in vivo; cited from earlier work
[10] = not told; cited from earlier work
[11] = 100 μM compound, 5.75 nM Fn1419, 500 μM L-cysteine
[12] = 5.75 nM enzyme, preincubation 20 min at 20 °C, read-out: IC50 (Fn1419 MGL^Cys activity)

Molecule	effect on MGL^Cys enzyme activity of Fn1419 (in words) [1, 11]	product increase rate (MGL^Cys activity of Fn1419 enhanced) [1, 11] [%]	other results
NC(=O)CN1CC(c2ccccc2)CC1=O (stereo not shown) [phenylpiracetam]	did not significantly affect enzyme activity	–	–
NCCCC(=O)O [GABA]	–	9.9	–
COC(=O)c1cc(O)c(O)c(O)c1 [methyl gallate]	–	–	product reduction rate (MGL^Cys activity of Fn1419) [1, 11]: 81.5%
OC[C@@H](O)[C@H](O)[C@@H](O)CO [xylitol]	did not significantly affect enzyme activity	–	–
chondroitin sulfate	–	5.8	–
COc1cc(/C=C/C(=O)CC(=O)/C=C/c2ccc(O)c(OC)c2)ccc1O [curcumin]	–	–	product reduction rate (MGL^Cys activity of Fn1419) [1, 11]: 53.9%
C[N+](C)(C)CC(=O)O [betaine-HCl]	–	24	–
CC(=O)O[C@H](CC(=O)O)C[N+](C)(C)C.[Cl-] [acetyl L-carnitine HCl]	not significantly affected	–	–
CC(=O)N[C@@H](CS)C(=O)O [N-acetyl-cysteine]	–	–	product reduction rate (MGL^Cys activity of Fn1419) [1, 11]: 12%
O=c1cc(-c2ccc(O)cc2)oc2cc(O)cc(O)c12 [apigenin]	not significantly affected	–	–
CCOC(=O)c1cc(O)c(O)c(O)c1 [ethyl gallate]	–	–	IC50 [2, 12]: 517 µM; product reduction rate (MGL^Cys activity of Fn1419) [1, 11]: 81.9%
O=C(O)C1(O)C[C@@H](O)C(O)[C@H](O)C1 (stereo partly drawn) [D-quinic acid]	–	35.1	–
C[C@@H]1O[C@@H](OC[C@H]2O[C@@H](Oc3c(-c4ccc(O)c(O)c4)oc4cc(O)cc(O)c4c3=O)[C@H](O)[C@@H](O)[C@@H]2O)[C@H](O)[C@H](O)[C@H]1O [rutin]	–	–	product reduction rate (MGL^Cys activity of Fn1419) [1, 11]: 18.2%
N[C@@H](CCC(=O)O)C(=O)O [L-glutamate]	did not significantly affect enzyme activity	–	–
Nc1ncnc2c1ncn2[C@@H]1O[C@H](CO)C[C@H]1O [cordycepin]	did not significantly affect enzyme activity	–	–
COc1cc2c(cc1OC)[C@@H]1Cc3ccc(OC)c(OC)c3CN1CC2 [L-tetrahydropal matrine]	–	71.7	–
C/C=C/C=C/C(=O)[O-].[K+] [potassium sorbate]	–	–	product reduction rate (MGL^Cys activity of Fn1419) [1]: 5.3%
O=C1CCC[C@@H]2[C@H]3CCCN4CCC[C@@H](CN12)[C@@H]34 [matrine]	–	4.9	–
Cc1ncc(CO)c(CO)c1O [pyridoxine-HCl]	did not significantly affect enzyme activity	–	–
O=C(O)CCCCC1CCSS1 (stereo not drawn) [α-lipoic acid]	not significantly affected	–	–
OCc1c[nH]c2ccccc12 [indole-3-carbinol]	not significantly affected	–	–
C[N+](C)(C)CCOP(=O)([O-])OP(=O)([O-])OC[C@H]1O[C@@H](n2ccc(N)nc2=O)[C@H](O)[C@@H]1O.[Na+] [citicoline sodium]	did not significantly affect enzyme activity	–	–

Molecule	effect on MGL^Cys enzyme activity of Fn1419 (in words) [1, 11]	product increase rate (MGL^Cys activity of Fn1419 enhanced) [1, 11] [%]	other results
CN(CC(=O)O)C(=N)N.O [creatine monohydrate]	–	–	product reduction rate (MGL^Cys activity of Fn1419) [1, 11]: 11.2%
CN(C)CCc1ccc(O)cc1.Cl [hordenine HCl]	–	32.1	–
O=C(O)c1cc(O)c(O)c(O)c1 [gallic acid]	–	–	IC50 [2]: 121 µM; growth inhibition (in words) [3]: strongly inhibits the growth; growth inhibition (in words) [4]: strongly inhibits the growth; growth inhibition (in words) [5]: strongly inhibits the growth; growth inhibition (in words) [6]: strongly inhibits the growth; inhibition of Fn1055 (in words) [7]: did not inhibit; inhibition of Fn1220 (in words) [8]: did not inhibit; product reduction rate (MGL^Cys activity of Fn1419) [1, 11]: 84.8%
CNCC(O)c1ccc(O)cc1 (stereo not shown) [synephrine]	–	–	product reduction rate (MGL^Cys activity of Fn1419) [1, 11]: 32.4%
Cl.NCC(CC(=O)O)c1ccccc1 (stereo not shown) [phenibut HCl]	–	61.8	–
O=C(/C=C/c1ccc(O)c(O)c1)O[C@@H]1C[C@](O)(C(=O)O)C[C@@H](O)[C@H]1O [chlorogenic acid]	did not significantly affect enzyme activity	–	–
O=c1c(O)c(-c2ccc(O)cc2)oc2cc(O)cc(O)c12 [kaempferol]	–	–	product reduction rate (MGL^Cys activity of Fn1419) [1, 11]: 40.4%
O=C1c2c(O)cc(O)cc2O[C@H](c2cc(O)c(O)c(O)c2)[C@H]1O [dihydromyricetin]	–	–	IC50 [2, 12]: 23 µM; bioavailability [9]: poor; permeability [10]: low; product reduction rate (MGL^Cys activity of Fn1419) [1, 11]: 89.5%
C[N+](C)(C)C[C@H](O)CC(=O)[O-] [L-carnitine]	did not significantly affect enzyme activity	–	–
CCOC(=O)CNC(=O)[C@@H]1CCCN1C(=O)Cc1ccccc1 [noopept] (PhAc-Pro-Gly-OEt)	–	21.8	–
C[N+](C)(C)CCO.O=C([O-])C(O)C(O)C(=O)O (stereo not shown) [choline bitartrate]	–	–	product increase rate (MGL^Cys activity of Fn1419 enhanced) [1]: 13.3%
O=C(O)/C=C/c1ccc(O)cc1 [p-coumaric, p-coumaric acid]	not significantly affected	–	–
O[C@H]1[C@H](O)[C@@H](O)[C@H](O)[C@@H](O)[C@H]1O [inositol]	did not significantly affect enzyme activity	–	–
CCCCCCCC/C=C\CCCCCCCC(N)=O [oleamide]	–	24.6	–
O=C1O[C@H]([C@@H](O)CO)C(O)=C1O [vitamin C]	did not significantly affect enzyme activity	–	–
COc1cc(C(=O)O)cc(OC)c1OC [gallic acid trimethyl ether]	did not affect	–	–
O=C(O)c1cccnc1 [niacin]	–	–	effect on MGL^Cys enzyme activity of Fn1419 (in words) [1]: did not significantly affect enzyme activity
N[C@@H](Cc1c[nH]c2ccc(O)cc12)C(=O)O [5-hydroxyl tryptophan]	–	53.0	–
OC[C@@H](O)[C@@H](O)CO [erythritol]	–	16.4	–
Oc1cccc(O)c1O [pyrogallic acid]	–	–	IC50 [2]: 57 µM; product reduction rate (MGL^Cys activity of Fn1419) [1, 11]: 89.8%
O.O.O.O.O.OC[C@H]1O[C@H](OC[C@H]2O[C@H](O[C@]3(CO)O[C@H](CO)[C@@H](O)[C@@H]3O)[C@H](O)[C@@H](O)[C@@H]2O)[C@H](O)[C@@H](O)[C@H]1O [D-raffinose pentahydrate]	–	72.5	–
